The results in this text go back to patent publication US20170001990A1 (Genentech, Inc., priority 2014, published 2017).

One may read the IC50 as the concentration that gives 50% inhibition.

This experiment concerns the target Human recombinant carboxy-terminal his-tagged LDHA (amino acids 2-332) (Homo sapiens, UniProt P00338). Kind of experiment: LDHA enzyme inhibition assay (NADH fluorescence). The settings on record: LDHA IC50 (μM), 1 nM LDHA, NADH and pyruvate, stereochemistry of tested sample given.
For `O=C1CC(c2ccsc2)(c2cccc(OC3CCCc4ccccc43)n2)NC(=O)C1Sc1ccccc1Cl` (stereo not shown) [Example 321, 5-(2-chlorophenyl)sulfanyl-4-hydroxy-2-(6-tetralin-1-yloxy-2-pyridyl)-2-(3-thienyl)-1,3-dihydro-pyridin-6-one], the half-maximal inhibitory concentration (IC50) came to 0.246 µM.

On to `O=C1CC(c2ccsc2)(c2cccc(Oc3ccc(F)nc3Cl)n2)NC(=O)C1Sc1ccccc1Cl` (stereo not shown) [Example 324, 6-[6-[(2-chloro-6-fluoro-3-pyridyl)oxy]-2-pyridyl]-3-(2-chlorophenyl) sulfanyl-6-(3-thienyl) piperidine-2,4-dione], for which the IC50 was found to be 0.084 µM.

`O=C1C[C@](c2ccsc2)(c2cccc(Oc3ccc(Br)cc3Cl)n2)NC(=O)C1Sc1ccccc1Cl` (stereo partly drawn) [Example 327, (6S)-6-[6-(4-bromo-2-chloro-phenoxy)-2-pyridyl]-3-(2-chlorophenyl) sulfanyl-6-(3-thienyl) piperidine-2,4-dione]: the IC50 was found to be 0.035 µM.

`O=C1CC(c2ccsc2)(c2ccc(N3CCOCC3)c(F)c2)NC(=O)C1Sc1ccccc1Cl` (stereo not shown) [Example 328, 3-(2-chlorophenyl)sulfanyl-6-(3-fluoro-4-morpholino-phenyl)-6-(3-thienyl)piperidine-2,4-dione]: the IC50 amounted to 0.054 µM.

Consider `O=C1CC(c2ccsc2)(c2cccc(Nc3ccc(F)c(F)c3Cl)n2)NC(=O)C1Sc1ccccc1Cl` (stereo not shown) [Example 329, 6-[6-(2-chloro-3,4-difluoro-anilino)-2-pyridyl]-3-(2-chlorophenyl)sulfanyl-6-(3-thienyl)piperidine-2,4-dione], for which the half-maximal inhibitory concentration (IC50) is 0.037 µM.

Turning to `O=C1C[C@](c2ccsc2)(c2cccc(Oc3ccc(C(F)(F)F)cc3)n2)NC(=O)C1Sc1ccccc1Cl` (stereo partly drawn) [Example 330, (6S)-3-(2-chlorophenyl) sulfanyl-6-(3-thienyl)-6-[6-[4-(trifluoromethyl)phenoxy]-2-pyridyl] piperidine-2,4-dione], the IC50 was determined as 0.041 µM.

Take `CC(Nc1cccc(C2(c3ccsc3)CC(=O)C(Sc3ccccc3Cl)C(=O)N2)n1)C1CC1` (stereo not shown) [Example 331]: the half-inhibitory concentration (IC50) was 0.148 µM.

As for `CC(Nc1cccc(C2(c3ccsc3)CC(=O)C(Sc3ccccc3Cl)C(=O)N2)n1)C1CC1` (stereo not shown) [Example 332], the IC50 is 0.168 µM.

Consider `O=C1CC(c2ccsc2)(c2cccc(OC3CCCc4c(F)cccc43)n2)NC(=O)C1Sc1ccccc1Cl` (stereo not shown) [Example 333, 5-(2-chlorophenyl)sulfanyl-2-[6-(5-fluorotetralin-1-yl)oxy-2-pyridyl]-4-hydroxy-2-(3-thienyl)-1,3-dihydropyridin-6-one], for which the 50% inhibitory concentration (IC50) was found to be 0.198 µM.

With `COc1cc(F)ccc1Oc1cccc(C2(c3ccsc3)CC(=O)C(Sc3ccccc3Cl)C(=O)N2)n1` (stereo not shown) [Example 334, 3-(2-chlorophenyl)sulfanyl-6-[6-(4-fluoro-2-methoxy-phenoxy)-2-pyridyl]-6-(3-thienyl)piperidine-2,4-dione], the IC50 came to 0.739 µM.

In the case of `Cc1cc(Nc2cccc([C@@]3(c4ccsc4)CC(=O)C(Sc4ccccc4Cl)C(=O)N3)n2)cnc1F` (stereo partly drawn) [Example 335, (6S)-3-(2-chlorophenyl) sulfanyl-6-[6-[(6-fluoro-5-methyl-3-pyridyl)amino]-2-pyridyl]-6-(3-thienyl) piperidine-2,4-dione], the 50% inhibitory concentration (IC50) is 0.002 µM.

For `O=C1CC(c2ccsc2)(c2cccc(Oc3ccccc3)n2)NC(=O)C1Sc1ccccc1Cl` [Example 336, (6R)-3-(2-chlorophenyl) sulfanyl-6-(6-phenoxy-2-pyridyl)-6-(3-thienyl) piperidine-2,4-dione], the IC50 amounted to 0.368 µM.

For the molecule `O=C1CC(c2cccc(Oc3ccc(F)cc3)n2)(c2ccccc2O)NC(=O)C1Sc1ccccc1Cl` (stereo not shown) [Example 338, 5-(2-chlorophenyl)sulfanyl-2-[6-(4-fluorophenoxy)-2-pyridyl]-4-hydroxy-2-(2-hydroxyphenyl)-1,3-dihydropyridin-6-one], the IC50 worked out at 0.009 µM.
